Values after ≈ are worked out from the molar mass of the structure shown. Read-outs that look alike come from different tables or passages of the source.
Legend:
[1] = tested on: HIV-1/TIBO R82150 (100-Ile); details: background, Balzarini I/II; cited from earlier work
HIV-1 RT (WT) = HIV-1 RT (WT) (Human immunodeficiency virus type 1 group M subtype B, UniProt P03366); test: biochemical; details: IC50, anti-HIV-1 RT (WT) activity
Description: The reaction mixture (50 μl) contained 50 mM Tris.HCl, pH 7.8, 5 mM dithiothreitol, […] glutathione, 500 μM EDTA, 150 mM KCl, 5 mM MgCl2, 1.25 μg of bovine serum albumin, a fixed concentration of the labeled substrate [2,8-^3 H]dGTP (2.95 μM, 2 μCi), a fixed concentration of the template/primer poly(C).oligo(dG) (0.1 mM), 0.06% Triton X-100, 5 μl of inhibitor solution [containing various concentrations (5-fold dilutions) of the test compounds], and 5 μl of the RT preparation. The reaction mixtures were incubated at 37° C. for 30 min, at which time 100 μl of calf thymus DNA (150 μg/ml), 2 ml of Na4 P2 07 (0.1 M in 1M HCl), and 2 ml of trichloroacetic acid (10%, v/v) were added. The solutions were kept on ice for 30 min, after which the acid-insoluble material was washed and analyzed for radioactivity.
Compounds I, III, IV and V were evaluated for their inhibitory effect on recombinant HIV-1 RT.

HIV-1(IIIB) (WT) = test: microbe, parasite or virus in culture; format: cell-based; details: Human immunodeficiency virus 1, IIIB, CCRF-CEM
Description: (§1) CEM cells were suspended at 250,000 cells per ml of culture medium and infected with wild-type HIV-I(IIIB) or mutant HIV-1 strains at 100 50% cell culture infective doses per ml. Then 100 μl of the infected cell suspensions was added to 200-μl microtiter plate wells containing 100 μl of an appropriate dilution of the test compounds. After 4 days incubation at 37° C., the cell cultures were examined for syncytium formation.

HIV-1/V(0.5) 103-Asn = test: Sensitivity of mutant HIV-1 strain in CEM cell cultures; format: cell-based; details: Human immunodeficiency virus 1, CCRF-CEM; Table 5; read-out: EC50
Description: as §1

HIV-1/Nev (106-Ala) = test: as above; format: cell-based; details: Human immunodeficiency virus 1, CCRF-CEM; CEM cells, Table 1; read-out: 50% Effective Concentration
Description: as §1

HIV-1/I(0.1) 103-Asn = test: as above; format: cell-based; details: Human immunodeficiency virus 1, CCRF-CEM; Table 5; read-out: EC50
Description: as §1

[2] = tested on: HIV-1/V(0.1) 101-Ile + 141-Glu; test: as above; format: cell-based; details: Human immunodeficiency virus 1, CCRF-CEM; Table 5; read-out: EC50
Description: as §1

HIV-1/III(0.1) 103-Asn = test: as above; format: cell-based; details: Human immunodeficiency virus 1, CCRF-CEM; Table 5; read-out: EC50
Description: as §1

HIV-1/II(0.1) 100-Ile = test: as above; format: cell-based; details: Human immunodeficiency virus 1, CCRF-CEM; Table 5; read-out: EC50
Description: as §1

HIV-1/B 101Glu = test: as above; format: cell-based; details: Human immunodeficiency virus 1, CCRF-CEM; Table 5; read-out: EC50
Description: as §1

[3] = tested on: HIV-1/TIBO R82150 (100-Ile); test: as above; format: cell-based; details: Human immunodeficiency virus 1, CCRF-CEM; CEM cells, Table 1; read-out: 50% Effective Concentration
Description: as §1

HIV-1/Pyr (181-Cys) = test: as above; format: cell-based; details: Human immunodeficiency virus 1, CCRF-CEM; CEM cells, Table 1; read-out: 50% Effective Concentration
Description: as §1

[4] = tested on: HIV-1/TIBO R82913 (103-Asn); test: as above; format: cell-based; details: Human immunodeficiency virus 1, CCRF-CEM; CEM cells, Table 1; read-out: 50% Effective Concentration
Description: as §1

[5] = tested on: HIV-1/TSAO-m^3 T (138-Lys); test: as above; format: cell-based; details: Human immunodeficiency virus 1, CCRF-CEM; CEM cells, Table 1; read-out: 50% Effective Concentration
Description: as §1

Structure (SMILES)	resistance of HIV-1 strains containing the 100 Leu→Ile mutation in their RT [1]	IC50 (HIV-1 RT (WT)) [nM]	EC50 (HIV-1(IIIB) (WT); CEM cells, Table 1, read-out: 50% Effective Concentration) [µg/mL]	EC50 (HIV-1(IIIB) (WT); HIV-1 (III8), Table 5, read-out: EC50) [µg/mL]	EC50 (HIV-1/V(0.5) 103-Asn) [µg/mL]	EC50 (HIV-1/Nev (106-Ala)) [µg/mL]	EC50 (HIV-1/I(0.1) 103-Asn) [µg/mL]	EC50 [2] [µg/mL]	EC50 (HIV-1/III(0.1) 103-Asn) [µg/mL]	EC50 (HIV-1/II(0.1) 100-Ile) [µg/mL]	EC50 (HIV-1/B 101Glu) [µg/mL]	EC50 [3] [µg/mL]	EC50 (HIV-1/Pyr (181-Cys)) [µg/mL]	EC50 [4] [µg/mL]	EC50 [5] [µg/mL]
CC(C)=CCN1Cc2cccc3[nH]c(=S)n(c23)C[C@@H]1C [Compound R82150]	resistant	–	–	–	–	–	–	–	–	–	–	–	–	–	–
CC(C)=CCN1Cc2cc(Cl)cc3[nH]c(=S)n(c23)C[C@@H]1C [TIBO R82913, reference compound]	resistant	2050	0.016 (≈ 0.0497 µM)	0.02 (≈ 0.0621 µM)	5 (≈ 15.5 µM)	0.5 (≈ 1.55 µM)	1.1 (≈ 3.42 µM)	0.16 (≈ 0.497 µM)	0.23 (≈ 0.715 µM)	≥ 5	> 2.5	1.75 (≈ 5.44 µM)	2 (≈ 6.21 µM)	4.3 (≈ 13.4 µM)	0.3 (≈ 0.932 µM)
